The text below walks through data of patent publication US20250197424A1, “QUINOLINE COMPOUND AND USE THEREOF” (SHANGHAI PHARMACEUTICALS HOLDING CO., LTD., priority 2022, published 2025).

Molecules are shown by their SMILES. Where a name gives a salt, the structure may show the parent alone.

Chain of GTP-KRAS-G12D:SOS1 (P01116-2 other isoform, or with tags, fused parts or gaps G12D): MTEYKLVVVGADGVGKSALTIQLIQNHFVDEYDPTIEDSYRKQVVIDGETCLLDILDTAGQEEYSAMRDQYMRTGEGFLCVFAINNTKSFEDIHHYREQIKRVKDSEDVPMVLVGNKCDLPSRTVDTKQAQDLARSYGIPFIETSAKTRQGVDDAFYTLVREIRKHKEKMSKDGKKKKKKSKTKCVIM

The target of this test is GTP-KRAS-G12D:SOS1 (Homo sapiens (Human), UniProt P01116, G12D). Description: GTP-KRAS-G12D:SOS1 binding inhibition. The protocol:
The IC50 of the compounds was fitted using a nonlinear regression equation with GraphPad Prism 8. The results are presented in Table 2: • Negative control: DMSO • Positive control: 100 μM BI-2852
The following nonlinear fitting formula was used to obtain the IC50 (half-maximal inhibitory concentration) of the compounds:
[formula] • X: logarithm of the compound concentration • Y: 665/615 Ratio
As usually defined, the IC50 is the concentration needed to halve the response being measured. Read a high IC50 as weaker potency. As for `CCc1cccc2cc(O)cc(-c3c(F)c4c5c(nc(OC[C@@]67C[C@H](O)CN6C[C@H](F)C7)nc5c3F)N3CC5CCC(N5)C3CO4)c12` (single isomer, unassigned) [Compound 15a, (2S,6R,7aS)-7a-((((2R or 2S, 5aS,6S,9R)-2-(8-Ethyl-3-hydroxynaphthalen-1-yl)-1,3-difluoro-5a,6,7,8,9,10-hexahydro-5H-6,9-epiminoazepino[2′,1′:3,4][1,4]oxazepino[5,6,7-de]quinazolin-13-yl)oxy)methyl)-6-fluorohexahydro-1H-pyrrolizin-2-ol dihydrochloride], the IC50 was 2670 nM.

`Oc1cc(-c2c(F)c3c4c(nc(OC[C@@]56CCCN5C[C@H](F)C6)nc4c2F)N2CC4CCC(N4)C2CO3)c2c(C3CC3)cccc2c1` (single isomer, unassigned) [Compound 11b, 5-cyclopropyl-4-((2S or 2R,5aS,6S,9R)-1,3-difluoro-13-(((2R,7aS)-2-fluorotetrahydro-1H-pyrrolizin-7a(5H)-yl)methoxy)-5a,6,7,8,9,10-hexahydro-5H-6,9-epiminoazepino[2′,1′:3,4][1,4]oxazepino[5,6,7-de]quinazolin-2-yl) naphthalen-2-ol dihydrochloride]: the IC50 was found to be 18.5 nM.

For `CCc1cccc2cc(O)cc(-c3c(F)c4c5c(nc(OC[C@]67C[C@@H](F)CN6C[C@@H](CO)C7)nc5c3F)N3CC5CCC(N5)C3CO4)c12` (single isomer, unassigned) [Compound 23b, 4-((2S or 2R,5aS,6S,9R)-1,3-difluoro-13-(((2R,6S,7aS)-2-fluoro-6-(hydroxymethyl)tetrahydro-1H-pyrrolizin-7a(5H)-yl)methoxy)-5a,6,7,8,9,10-hexahydro-5H-6,9-epiminoazepino[2′,1′:3,4][1,4]oxazepino[5,6,7-de]quinazolin-2-yl)-5-ethylnaphthalen-2-ol dihydrochloride], the IC50 was 5.75 nM. As for `CCc1cccc2cc(O)cc(-c3c(F)c4c5c(nc(OC[C@]67C[C@@H](F)CN6C[C@@H](CN6CCCCC6)C7)nc5c3F)N3CC5CCC(N5)C3CO4)c12` (single isomer, unassigned) [Compound 27b, 4-((2S or 2R,5aS,6S,9R)-1,3-difluoro-13-(((2R,6R,7aS)-2-fluoro-6-(piperidin-1-ylmethyl)tetrahydro-1H-pyrrolizin-7a(5H)-yl)methoxy)-5a,6,7,8,9,10-hexahydro-5H-6,9-epiminoazepino[2′,1′:3,4][1,4]oxazepino[5,6,7-de]quinazolin-2-yl)-5-ethylnaphthalen-2-ol trihydrochloride], the figure is 17.2 nM; as for `Oc1cc(Cl)c2c(c1)C1(CC2)CCc2c(nc(OC[C@@]34CCCN3C[C@H](F)C4)nc2N2CC3CCC(C2)N3)C1F` (single isomer, unassigned) [Compound 8c, (1S or 1R,8′R or 8'S)-4′-((1R,5S)-3,8-diazabicyclo[3.2.1]octan-3-yl)-4-chloro-8′-fluoro-2′-(((2R,7aS)-2-fluorotetrahydro-1H-pyrrolizin-7a(5H)-yl)methoxy)-2,3,5′,8′-tetrahydro-6′H-spiro[indene-1,7′-quinazolin]-6-ol dihydrochloride], 4010 nM.

With `CCc1cccc2cc(O)cc(-c3c(F)c4c5c(nc(OC[C@]67C[C@@H](F)CN6C[C@@H](CN6CCN(C)CC6)C7)nc5c3F)N3CC5CCC(N5)C3CO4)c12` (single isomer, unassigned) [Compound 29b, 4-((2R or 2S, 5aS,6S,9R)-1,3-difluoro-13-(((2R,6R,7aS)-2-fluoro-6-((4-methylpiperazin-1-yl)methyl)tetrahydro-1H-pyrrolizin-7a(5H)-yl)methoxy)-5a,6,7,9,10-hexahydro-5H-6,9-epiminoazepino[2′,1′:3,4][1,4]oxazepino[5,6,7-de]quinazolin-2-yl)-5-ethylnaphthalen-2-ol tetrahydrochloride], the IC50 was 15.7 nM. The value for `CCc1cccc2cc(O)cc(-c3c(F)c4c5c(nc(OC[C@]67C[C@@H](F)CN6C[C@H](CO)C7)nc5c3F)N3CC5CCC(N5)C3CO4)c12` (single isomer, unassigned) [Compound 21b, 4-((2S or 2R,5aS,6S,9R)-1,3-difluoro-13-(((2R,6R,7aS)-2-fluoro-6-(hydroxymethyl)tetrahydro-1H-pyrrolizin-7a(5H)-yl)methoxy)-5a,6,7,8,9,10-hexahydro-5H-6,9-epiminoazepino[2′,1′:3,4][1,4]oxazepino[5,6,7-de]quinazolin-2-yl)-5-ethylnaphthalen-2-ol dihydrochloride] was 7.21 nM; that for `Oc1ccc(-c2cc[nH]n2)c(-c2c(F)c3c4c(nc(OC[C@@]56CCCN5C[C@H](F)C6)nc4c2F)N2CC4CCC(N4)C2CO3)c1` (stereo partly drawn) [Compound 24, 3-((5aS,6S,9R)-1,3-Difluoro-13-(((2R,7aS)-2-fluorotetrahydro-1H-pyrrolizin-7a(5H)-yl)methoxy)-5a,6,7,8,9,10-hexahydro-5H-6,9-epiminoazepino[2′,1′:3,4][1,4]oxazepino[5,6,7-de]quinazolin-2-yl)-4-(1H-pyrazol-3-yl) phenol dihydrochloride] was 2070 nM; that for `CCc1cccc2cc(O)cc(-c3c(F)c4c5c(nc(OC[C@@]67C[C@H](O)CN6C[C@H](F)C7)nc5c3F)N3CC5CCC(N5)C3CO4)c12` (single isomer, unassigned) [Compound 15b, (2S,6R,7aS)-7a-((((2S or 2R,5aS,6S,9R)-2-(8-ethyl-3-hydroxynaphthalen-1-yl)-1,3-difluoro-5a,6,7,8,9,10-hexahydro-5H-6,9-epiminoazepino[2′,1′:3,4][1,4]oxazepino[5,6,7-de]quinazolin-13-yl)oxy)methyl)-6-fluorohexahydro-1H-pyrrolizin-2-ol dihydrochloride] was 6.54 nM.

Compound `Cc1cc(N)nc(-c2c(F)c3c4c(nc(OC[C@@]56CCCN5C[C@H](F)C6)nc4c2F)N2C[C@@H]4CCC(N4)[C@@H]2CCO3)c1C(F)(F)F` (single isomer, unassigned) [Compound 26a, 6-((2S or 2R,6aS,7S,10R)-1,3-Difluoro-14-(((2R,7aS)-2-fluorotetrahydro-1H-pyrrolizin-7a(5H)-yl)methoxy)-5,6,6a,7,8,9,10,11-octahydro-7,10-epiminoazepino[1′,2′: 5,6][1,5]oxazocino[4,3,2-de]quinazolin-2-yl)-4-methyl-5-(trifluoromethyl)pyridin-2-amine] showed an IC50 of 247 nM. Regarding `Cc1cc(N)nc(-c2c(F)c3c4c(nc(OC[C@@]56CCCN5C[C@H](F)C6)nc4c2F)N2CC4CCC(N4)C2CO3)c1C(F)(F)F` (single isomer, unassigned) [10a′, (S or R)-6-((5aS,6S,9R)-1,3-Difluoro-13-(((2R,7aS)-2-fluorotetrahydro-1H-pyrrolizin-7a(5H)-yl)methoxy)-5a,6,7,8,9,10-hexahydro-5H-6,9-epiminoazepino[2′,1′:3,4][1,4]oxazepino[5,6,7-de]quinazolin-2-yl)-4-methyl-5-(trifluoromethyl)pyridin-2-amine], the IC50 came to 700 nM. As to `Nc1nc2c(-c3c(F)c4c5c(nc(OC[C@@]67CCCN6C[C@H](F)C7)nc5c3F)N3CC5CCC(N5)C3CO4)ccc(F)c2s1` (stereo partly drawn) [Compound 19, 4-((5aS,6S,9R)-1,3-Difluoro-13-(((2R,7aS)-2-fluorotetrahydro-1H-pyrrolizin-7a(5H)-yl)methoxy)-5a,6,7,8,9,10-hexahydro-5H-6,9-epiminoazepino[2′,1′:3,4][1,4]oxazepino[5,6,7-de]quinazolin-2-yl)-7-fluorobenzo[d]thiazol-2-amine dihydrochloride], the IC50 turned out to be 12.7 nM. As for `Oc1cc(-c2c(F)c3c4c(nc(OC[C@@]56CCCN5C[C@H](F)C6)nc4c2F)N2CC4CCC(N4)C2CO3)c2c3c(ccc2c1)CCC3` (single isomer, unassigned) [Compound 14b, 9-((2S or 2R,5aS,6S,9R)-1,3-difluoro-13-(((2R,7aS)-2-fluorotetrahydro-1H-pyrrolizin-7a(5H)-yl)methoxy)-5a,6,7,8,9,10-hexahydro-5H-6,9-epiminoazepino[2′,1′:3,4][1,4]oxazepino[5,6,7-de]quinazolin-2-yl)-2,3-dihydro-1H-cyclopenta[a]naphthalen-7-ol dihydrochloride], the figure is 15.3 nM; as for `CCc1cccc2cc(O)cc(-c3c(F)c4c5c(nc(OC[C@]67C[C@@H](F)CN6C[C@@H](CN6CCOCC6)C7)nc5c3F)N3CC5CCC(N5)C3CO4)c12` (single isomer, unassigned) [Compound 28a, 4-((2R or 2S, 5aS,6S,9R)-1,3-Difluoro-13-(((2R,6R,7aS)-2-fluoro-6-(morpholinomethyl)tetrahydro-1H-pyrrolizin-7a(5H)-yl)methoxy)-5a,6,7,8,9,10-hexahydro-5H-6,9-epiminoazepino[2′,1′:3,4][1,4]oxazepino[5,6,7-de]quinazolin-2-yl)-5-ethylnaphthalen-2-ol trihydrochloride], 5300 nM; as for `CCc1cccc2cc(O)cc(-c3c(F)c4c5c(nc(OC[C@]67C[C@@H](F)CN6C[C@H](CO)C7)nc5c3F)N3CC5CCC(N5)C3CO4)c12` (single isomer, unassigned) [Compound 21a, 4-((2R or 2S, 5aS,6S,9R)-1,3-Difluoro-13-(((2R,6R,7aS)-2-fluoro-6-(hydroxymethyl)tetrahydro-1H-pyrrolizin-7a(5H)-yl)methoxy)-5a,6,7,8,9,10-hexahydro-5H-6,9-epiminoazepino[2′,1′:3,4][1,4]oxazepino[5,6,7-de]quinazolin-2-yl)-5-ethylnaphthalen-2-ol dihydrochloride], 7220 nM.

`CCc1cccc2cc(O)cc(-c3c(F)c4c5c(nc(OC[C@]67C[C@@H](F)CN6C[C@@H](COC)C7)nc5c3F)N3CC5CCC(N5)C3CO4)c12` (single isomer, unassigned) [Compound 18a, 4-((2R or 2S, 5aS,6S,9R)-1,3-Difluoro-13-(((2R,6S,7aS)-2-fluoro-6-(methoxymethyl)tetrahydro-1H-pyrrolizin-7a(5H)-yl)methoxy)-5a,6,7,8,9,10-hexahydro-5H-6,9-epiminoazepino[2′,1′:3,4][1,4]oxazepino[5,6,7-de]quinazolin-2-yl)-5-ethylnaphthalen-2-ol dihydrochloride] yielded an IC50 of 1940 nM.
